Source: patent EP3494998A1, “GLYCOSYLATED PSMA INHIBITORS FOR IMAGING AND ENDORADIOTHERAPY” (Technische Universität München, priority 2017, dated 2019)
Read-outs that look alike come from different tables or passages of the source.

Experiments:
[1] = target: T1, PSMA (Homo sapiens, UniProt Q04609); assay: competitive binding assay (IC50) on LNCaP cells with ([125I]I-BA)KuE as radioligand; details: LNCaP cells (150,000/well); ([125I]I-BA)KuE (c = 0.2 nM) as radioligand; HBSS (1% BSA), 4°C, 1 h; natGa or natLu analogs; mean ± SD (n = 3)
T1 construct: PSMA-positive LNCAP cells (200265; Cell Lines Service GmbH) were cultivated; host or cells: LNCaP human prostate cancer cells
Description: (§1) One day (24h ± 2h) prior to all experiments with LNCaP cells, the cultivated cells were harvested using a mixture of trypsin/ethylendiaminetetraacetate (0.05%/ 0.02%) and phosphate buffered saline and centrifuged. After centrifugation, the supernatant was disposed and the cell pellet resuspended in culture medium. Afterwards, cells were counted with a hemocytometer (Neubauer) and seeded in 24-well plates.
Cells were incubated in HBSS (1% BSA) at 4°C for 1 h.

[2] = target: human serum albumin (HSA) (Homo sapiens, UniProt P02768); assay: HSA binding by HPLC on a column with immobilized human albumin; details: natGa- and natLu-labeled inhibitors; HPLC retention time with non-linear regression calibration on nine reference substances
From the text: The Fmoc-(9-fluorenylmethoxycarbonyl-) and all other protected amino acid analogs were purchased from Bachem (Bubendorf, Switzerland) or Iris Biotech (Marktredwitz, Germany). Dr. Schottelius from the laboratory of Prof. […] The tritylchloride polystyrene (TCP) resin was obtained from PepChem (Tubingen, Germany). Chematech (Dijon, France) delivered the chelator DOTAGA-anhydride. All necessary solvents and other organic reagents were purchased from either Alfa Aesar (Karlsruhe, Germany), Sigma-Aldrich (Munich, Germany) or VWR (Darmstadt, Germany). Solid phase synthesis of the peptides was carried out by manual operation using an Intelli-Mixer syringe shaker (Neolab, Heidelberg, Germany). […] Analysis of the peptides was performed by applying different gradients of 0.1% (v/v) trifluoroacetic acid (TFA) in H2O (solvent A) and 0.1% TFA (v/v) in acetonitrile (MeCN) (solvent B) with a constant flow of 1 mL/min (specific gradients are cited in the text). […] Human serum albumin (HSA) binding was determined using a Chiralpak HSA 50 x 3 mm 5µm Analytical Column connected to a Chiralpak HSA 10 x 3 mm 5µm Guard Cartridge (Daicel Chemical Industries) purchased from Chiral Technologies Europe (France). Non-linear regression for the HSA binding was performed using OriginPro 2016G. Both retention times tR as well as the capacity factors K' are cited in the text. Preparative RP-HPLC of the peptides was achieved on a Shimadzu HPLC system using a Multospher 100 RP 18-5 (250 x 20 mm) column (CS GmbH, Langerwehe, Germany) with a constant flow of 5 mL/min. […] Radioactivity was detected through connection of the outlet of the UV-photometer to a Nal(TI) well-type scintillation counter from EG&G Ortec (Munich, Germany). […] ESI-mass spectra were acquired on an expression^L CMS mass spectrometer (Advion Ltd., Harlow, UK) and on a Varian 500-MS IT mass spectrometer (Agilent Technologies, Santa Clara, USA). For the HSA binding experiment a Chiralpak HSA 50 x 3 mm 5µm Analytical Column, (Daicel Chemical Industries, LTD) connected to a Chiralpak HSA 10 x 3 mm 5µm Guard Cartridge (Daicel Chemical Industries; Chiral Technologies Europe) was used. Blood samples were collected from volunteers.
The mobile phase consisted of a binary gradient system with a constant total flow rate of 0.5mL/min. Mobile phase A was a 50 mM pH 6.9 ammonium acetate solution, mobile phase B was 2-Propanol (HPLC grade, VWR, Germany). The gradient, of mobile phase A was 100% from 0 to 3 min and from 3 min to the end of each run, mobile phase B was set 20%. […] Afterwards, the actual PSMA inhibitors with unknown HSA binding were measured. More details are found in the supplementary info.
To diminish the influence of temperature and small pH fluctuations of the NH4OAc buffer on binding (retention time), a set of nine substances with known HSA binding coefficients was used to establish a calibration line by non-linear regression (log retention time vs. log HSA [%] binding).

[3] = lipophilicity (logP), shake flask method; format: physicochemical; details: n-octanol and PBS (pH 7.4); radiolabeled compounds; mean ± SD (n = 6)
Description: The logP values were determined as described (Weineisen, M., et al., Synthesis and preclinical evaluation of DOTAGA-conjugated PSMA ligands for functional imaging and endoradiotherapy of prostate cancer. EJNMMI research, 2014. 4(1): p. 1). The experimental details are described in the supplementary info.
The determination of the logP was used to assess lipophilicity. The values for the respective radiolabeled compounds from Table 2 were obtained using the shake flask method (n = 6) in n-octanol and PBS (pH 7.4). […] For all compounds, the respective ^177Lu-labeled analog was more lipophilic than the ^68Ga-labeled counterpart.

[4] = system: LNCaP cells; assay: cell surface binding and internalization in LNCaP cells; format: cell-based, human; details: for internalized fraction of total applied activity: 60 min incubation, not normalized, 0.2 nM (68Ga) or 0.5 nM (177Lu); for Internalization [%]: normalized to reference ([125I]I-BA)KuE, corrected for unspecific binding, c = 0.2 nM for 68Ga and 0.5 nM for 177Lu compounds, 37°C, 1 h, 125,000 cells/well, mean ± SD (n = 3)
Description: as §1, with “plates. […]” for “plates.”
To differentiate between the cell surface bound and internalized fraction, a PMPA-wash (1.0 µM) was performed to remove the specifically bound radioligand.

[5] = target: T1, PSMA; details: PSMA I&T (18), values taken from a previous publication (Weineisen 2014), same binding assay; cited from earlier work
[6] = system: LNCaP tumor xenografts; assay: µPET imaging in mice bearing LNCaP tumor xenografts; details: 85 min p.i.; dynamic µPET; LNCaP xenograft
Description: For the tumor model, LNCaP cells (approx. 10^7 cells) were suspended 1:1 in serum-free DMEM-F12 medium and Matrigel (BD Biosciences, Germany) and inoculated onto the right shoulder of male, 6 to 8 weeks old CB-17 SCID mice (Charles River Laboratories, Sulzfeld, Germany). Animals were used after the tumor size reached 4 to 8 mm in diameter for experiments.
Imaging experiments were conducted using a Siemens Inveon small animal PET and data analyzed by the associated Inveon Research Workplace software. […] Dynamic imaging was carried out after on-bed injection for 90 min. The static blockade image was obtained, after 1 h p.i. with 15 min acquisition time. Blockade was done by coinjection of 8mg/kg of PMPA. All images were reconstructed using an OSEM3D algorithm without scanner and attenuation correction.
Over a period of 90 min, comparative dynamic µPET scans were performed with ^68Ga-13 and ^68Ga-18 in CB-17 SCID mice bearing LNCaP tumor xenografts to assess the kinetic tissue distribution.

[7] = system: LNCaP cells; details: PSMA I&T (18), data from a previous publication (Weineisen 2014), normalized to ([125I]I-BA)KuE, 60 min, cited from earlier work
[8] = system: human blood samples
Description: Separation of the different blood cells was accomplished by stepwise centrifugation. Erythrocytes were gained after centrifugation at 700 g (1,400 rpm, Biofuge 15, Heraus Sepatech, Osterode, Germany) for 5 min and the pellet was rinsed with 500 µL of ice-cold PBS and again centrifuged. Leukocytes were gained by combination of the supernatant and subsequent centrifugation at 3,100 g (6,200 rpm) with a further washing step with 500 µL of ice-cold PBS and repeated centrifugation. The activities of the pellets (erythrocytes and leukocytes) and the supernatant were measured in a γ-counter. PSMA specific binding was determined by co-incubation with PMPA solution (100 µM).
In addition, 1.0 MBq of the used radiolabeled PSMA ligands were incubated in the presence of PMPA solution (100 µM) to differentiate between specific and unspecific binding.

human serum albumin (HSA), sequence (P02768 25-609): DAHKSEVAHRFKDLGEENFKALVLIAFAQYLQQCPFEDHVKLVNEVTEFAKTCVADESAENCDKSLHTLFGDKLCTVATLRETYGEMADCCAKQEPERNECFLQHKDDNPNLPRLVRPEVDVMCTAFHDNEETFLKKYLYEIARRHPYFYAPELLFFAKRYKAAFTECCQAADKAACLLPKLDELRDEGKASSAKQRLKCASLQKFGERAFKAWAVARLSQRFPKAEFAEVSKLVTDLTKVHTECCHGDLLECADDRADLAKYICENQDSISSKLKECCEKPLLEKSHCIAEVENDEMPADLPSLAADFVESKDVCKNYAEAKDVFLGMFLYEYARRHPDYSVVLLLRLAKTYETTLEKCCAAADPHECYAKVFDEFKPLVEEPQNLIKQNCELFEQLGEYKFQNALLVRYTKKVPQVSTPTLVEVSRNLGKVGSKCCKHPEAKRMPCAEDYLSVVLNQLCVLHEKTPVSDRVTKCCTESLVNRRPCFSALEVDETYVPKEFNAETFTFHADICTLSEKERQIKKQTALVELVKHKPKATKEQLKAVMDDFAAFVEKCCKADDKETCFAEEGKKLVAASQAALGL
T1 sequence (Q04609 whole entry): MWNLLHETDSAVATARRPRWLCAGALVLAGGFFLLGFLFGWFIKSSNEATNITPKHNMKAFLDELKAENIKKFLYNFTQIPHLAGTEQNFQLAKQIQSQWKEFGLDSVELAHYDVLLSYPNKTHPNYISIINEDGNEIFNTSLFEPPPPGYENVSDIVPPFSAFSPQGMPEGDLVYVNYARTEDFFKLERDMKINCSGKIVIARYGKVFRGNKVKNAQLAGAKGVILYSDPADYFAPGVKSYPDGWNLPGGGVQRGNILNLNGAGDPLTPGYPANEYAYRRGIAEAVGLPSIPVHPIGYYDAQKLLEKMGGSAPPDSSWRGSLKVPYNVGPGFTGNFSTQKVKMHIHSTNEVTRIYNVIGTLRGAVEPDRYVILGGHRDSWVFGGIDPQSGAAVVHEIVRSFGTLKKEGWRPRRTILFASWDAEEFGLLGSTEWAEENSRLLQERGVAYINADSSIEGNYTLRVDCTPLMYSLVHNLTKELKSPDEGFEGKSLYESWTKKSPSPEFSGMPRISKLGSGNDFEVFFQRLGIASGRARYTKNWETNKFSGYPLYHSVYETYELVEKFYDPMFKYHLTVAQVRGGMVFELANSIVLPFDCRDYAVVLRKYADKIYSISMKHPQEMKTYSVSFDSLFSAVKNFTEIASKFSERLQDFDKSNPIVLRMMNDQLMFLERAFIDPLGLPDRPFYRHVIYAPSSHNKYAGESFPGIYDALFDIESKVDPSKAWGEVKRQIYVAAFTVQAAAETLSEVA

Substance | IC50 [1] | HSA [%] [2] | logP [3] | Internalization [%] [4] | further results
[^natLu]PSMA I&T Galactose [^nat/177Lu-13] | 5.8 ± 0.6 nM | 23.3% | -3.95 ± 0.12 | 60.2 ± 2.8% | internalized fraction of total applied activity [4]: 11.3%
[^natGa]PSMA I&T Galactose [^nat/68Ga-13] |  | 7.7% | -4.15 ± 0.07 | 18.7 ± 4.1% | 
[^68Ga]PSMA I&T [^nat/68Ga-18] |  | 48.7% |  |  | IC50 [5]: 9.4 ± 2.9 nM; tumor accumulation [6]: 5.8 ± 0.3 %ID/mL; Internalization [%] [7]: 59.2 ± 1.7%; Internalization [%] ([7]; listed as [^68Ga]PSMA I&T): 59.2% ± 1.7%
[^natGa]PSMA I&T Cellubiose [^nat/68Ga-15] | 10.8 ± 1.7 nM |  |  | 4.0 ± 0.6% | internalized fraction of total applied activity [4]: 1.3%
[^natGa]PSMA I&T Mannose [^nat/68Ga-14] | 7.1 ± 0.3 nM |  | -4.01 ± 0.08 | 8.4 ± 0.2% | 
[^177Lu]PSMA I&T [^nat/177Lu-18] |  | 78.6% |  |  | IC50 [5]: 7.9 ± 2.4 nM; Internalization [%] [7]: 75.5 ± 1.6%; Binding to erythrocytes ([8]; simultaneous incubation with PMPA (100 µM)): 29.2%; leukocyte fraction ([8]; with PMPA (100 µM)): 0.2%; supernatant ([8]; with PMPA (100 µM)): 70.7%; Binding to erythrocytes ([8]; without PMPA): 38.9%; leukocyte fraction ([8]; without PMPA): 0.1%; supernatant ([8]; without PMPA): 61.1%
[^natLu]PSMA I&T Mannose [^nat/177Lu-14] | 5.9 ± 0.5 nM |  | -3.85 ± 0.04 | 35.3 ± 2.9% | 
[^natLu]PSMA I&T Cellobiose [^nat/177Lu-15] | 12.5 ± 2.3 nM | 19.9% | -4.04 ± 0.1 | 22.3 ± 1.2% | 
PSMA I&T Galactose [compound 13] |  |  |  | 18.7% ± 4.1% | 
